For assay [1], the target named is JMJD2C (Homo sapiens (Human), UniProt Q9H3R0). The experiment in a line: JMJD2C in vitro enzyme inhibition assay (TR-FRET). The format is biochemical. (Time-resolved FRET reads energy transfer from a long-lived donor to a nearby acceptor.)
For assay [2], the target named is FBXL10 (Homo sapiens (Human), UniProt Q8NHM5). Description: FBXL10 in vitro enzyme inhibition assay (AlphaScreen). The format is biochemical. The protocol: Reaction product was determined quantitatively by AlphaScreen detection after the addition of detection reagents anti-H3K36me1 antibody, AlphaScreen® Streptavidin-coated Donor beads, and AlphaScreen® Protein A Acceptor beads in 50 mM HEPES, pH7.3, 10 mM NaCl, 0.005% Brij35, 5 mM EDTA, 2 mg/ml BSA to final 10 μg/ml beads.
Plates were incubated at room temperature for 40 minutes, followed by addition of 3 μl of 50 μg/ml AlphaScreen® Streptavidin-coated Donor beads and AlphaScreen® Protein A Acceptor beads in 50 mM HEPES, pH7.3, 10 mM NaCl, 0.005% Brij35, 5 mM EDTA, 2 mg/ml BSA. Plates were read by EnVisionMultilabel Reader in AlphaScreen mode after a minimum of 2 hour or up to overnight incubation at room temperature. The AlphaScreen signal for each well was used to determine inhibition constant (IC50).
In general terms: In Alpha technology, singlet oxygen from a donor bead excites a nearby acceptor bead.

Assay [3] has as its target JMJD2A (Homo sapiens (Human), UniProt O75164). Description: JMJD2A in vitro enzyme inhibition assay (TR-FRET). The conditions noted are these: read-out: JMJD2A IC50.
Description: (§1) This assay determines the ability of a test compound to inhibit Jarid1A, Jarid1B, JMJD2C, and JMJD2A demethylase activity.
Reaction product was determined quantitatively by TR-FRET after the addition of detection reagent Phycolink Streptavidin-allophycocyanin (Prozyme) and Europium-anti-di-methylated histone H3 lysine 9 (H3K9me2) antibody (PerkinElmer) in the presence of 5 mM EDTA in LANCE detection buffer (PerkinElmer) at a final concentration of 50 nM and 1 nM, respectively.
The assay reaction was initiated by the following: 2 μl of the mixture of 900 nM H3K9me3-biotin labeled peptide and 6 μM alpha-ketoglutaric acid with 2 μl of 11-point serial diluted inhibitor in 3% DMSO were added to each well of plate, followed by the addition of 2 μl of 6 nM JMJD2A to initiate the reaction. The reaction mixture was incubated at room temperature for 30 minutes, and terminated by the addition of 6 μl of 5 mM EDTA in LANCE detection buffer containing 100 nM Phycolink Streptavidin-allophycocyanin and 2 nM Europium-anti-H3K9me2 antibody.
The target of assay [4] is Jarid1B (Homo sapiens (Human), UniProt Q9UGL1). Description: Jarid1B in vitro enzyme inhibition assay (TR-FRET). The format is biochemical.
Description: as §1
The ability of test compounds to inhibit the activity of Jarid1B was determined in 384-well plate format under the following reaction conditions: 0.8 nM Jarid1B, 300 nM H3K4me3-biotin labeled peptide (Anaspec cat #64357), 2 μM alpha-ketoglutaric acid in assay buffer of 50 mM HEPES, pH7.3, 0.005% Brij35, 0.5 mM TCEP, 0.2 mg/ml BSA, 50 μM sodium L-ascorbate, and 2 μM ammonium iron(II) sulfate. Reaction product was determined quantitatively by TR-FRET after the addition of detection reagent Phycolink Streptavidin-allophycocyanin (Prozyme) and Europium-anti-mono- or di-methylated histone H3 lysine 4 (H3K4me1-2) antibody (PerkinElmer) in the presence of 5 mM EDTA in LANCE detection buffer (PerkinElmer) at a final concentration of 25 nM and 1 nM, respectively.
The assay reaction was initiated by the following: 2 μl of the mixture of 900 nM H3K4me3-biotin labeled peptide and 6 μM alpha-ketoglutaric acid with 2 μl of 11-point serial diluted inhibitor in 3% DMSO was added to each well of the plate, followed by the addition of 2 μl of 2.4 nM Jarid1B to initiate the reaction. The reaction mixture was incubated at room temperature for 30 minutes, and terminated by the addition of 6 μl of 5 mM EDTA in LANCE detection buffer containing 50 nM Phycolink Streptavidin-allophycocyanin and 2 nM Europium-anti-H3K4me1-2 antibody. Plates were read by EnVisionMultilabel Reader in TR-FRET mode (excitation at 320 nm, emission at 615 nm and 665 nm) after 1 hour incubation at room temperature. A ratio was calculated (665/615) for each well and fitted to determine inhibition constant (IC50).
For assay [5], the target named is Jarid1A (Homo sapiens (Human), UniProt P29375). Description: Jarid1A in vitro enzyme inhibition assay (TR-FRET). It counts as biochemical. The source says:
The enzymatic assay of Jarid1A activity is based upon Time Resolved-Fluorescence Resonance Energy Transfer (TR-FRET) detection.

Jarid1B, sequence (Q9UGL1 2-751): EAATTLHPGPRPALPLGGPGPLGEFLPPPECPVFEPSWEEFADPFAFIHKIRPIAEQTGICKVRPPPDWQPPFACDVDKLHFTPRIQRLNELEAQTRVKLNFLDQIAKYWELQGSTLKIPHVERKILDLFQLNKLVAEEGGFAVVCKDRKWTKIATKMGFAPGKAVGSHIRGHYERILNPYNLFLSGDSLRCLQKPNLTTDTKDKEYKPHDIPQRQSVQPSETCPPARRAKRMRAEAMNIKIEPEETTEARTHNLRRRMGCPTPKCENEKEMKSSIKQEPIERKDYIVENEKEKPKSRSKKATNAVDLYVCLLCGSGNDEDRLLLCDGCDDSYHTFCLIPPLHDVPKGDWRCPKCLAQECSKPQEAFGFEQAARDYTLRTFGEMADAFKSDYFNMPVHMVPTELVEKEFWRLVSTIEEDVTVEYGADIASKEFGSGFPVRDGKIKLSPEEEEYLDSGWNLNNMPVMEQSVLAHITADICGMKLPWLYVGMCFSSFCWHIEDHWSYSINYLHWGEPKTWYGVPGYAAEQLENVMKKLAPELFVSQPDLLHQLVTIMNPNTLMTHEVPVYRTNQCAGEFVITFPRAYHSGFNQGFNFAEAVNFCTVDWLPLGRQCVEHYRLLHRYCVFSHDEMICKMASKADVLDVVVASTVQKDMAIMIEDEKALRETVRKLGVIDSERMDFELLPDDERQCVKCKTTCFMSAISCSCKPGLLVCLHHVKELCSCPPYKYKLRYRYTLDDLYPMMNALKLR
JMJD2A, sequence (O75164 1-350): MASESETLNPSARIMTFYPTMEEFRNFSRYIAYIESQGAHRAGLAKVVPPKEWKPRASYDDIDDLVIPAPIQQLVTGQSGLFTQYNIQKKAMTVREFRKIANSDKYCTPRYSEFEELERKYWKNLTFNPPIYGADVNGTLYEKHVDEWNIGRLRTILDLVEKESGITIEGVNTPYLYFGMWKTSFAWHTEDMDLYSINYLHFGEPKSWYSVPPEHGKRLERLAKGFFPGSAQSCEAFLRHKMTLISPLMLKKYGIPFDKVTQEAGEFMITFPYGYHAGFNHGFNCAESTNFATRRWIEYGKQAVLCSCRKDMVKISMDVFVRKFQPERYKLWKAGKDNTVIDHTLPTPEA
JMJD2C, sequence (Q9H3R0 2-372): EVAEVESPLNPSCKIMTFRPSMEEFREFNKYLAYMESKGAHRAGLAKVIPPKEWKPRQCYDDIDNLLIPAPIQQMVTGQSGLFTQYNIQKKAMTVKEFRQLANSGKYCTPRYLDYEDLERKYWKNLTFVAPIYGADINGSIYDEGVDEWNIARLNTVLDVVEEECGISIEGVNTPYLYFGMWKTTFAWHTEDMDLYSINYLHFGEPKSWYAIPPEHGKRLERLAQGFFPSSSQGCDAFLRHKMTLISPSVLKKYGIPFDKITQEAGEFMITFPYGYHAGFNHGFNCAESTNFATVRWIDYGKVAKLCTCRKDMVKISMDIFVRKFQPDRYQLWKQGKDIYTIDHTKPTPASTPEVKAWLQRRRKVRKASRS
FBXL10, sequence (Q8NHM5 1-650): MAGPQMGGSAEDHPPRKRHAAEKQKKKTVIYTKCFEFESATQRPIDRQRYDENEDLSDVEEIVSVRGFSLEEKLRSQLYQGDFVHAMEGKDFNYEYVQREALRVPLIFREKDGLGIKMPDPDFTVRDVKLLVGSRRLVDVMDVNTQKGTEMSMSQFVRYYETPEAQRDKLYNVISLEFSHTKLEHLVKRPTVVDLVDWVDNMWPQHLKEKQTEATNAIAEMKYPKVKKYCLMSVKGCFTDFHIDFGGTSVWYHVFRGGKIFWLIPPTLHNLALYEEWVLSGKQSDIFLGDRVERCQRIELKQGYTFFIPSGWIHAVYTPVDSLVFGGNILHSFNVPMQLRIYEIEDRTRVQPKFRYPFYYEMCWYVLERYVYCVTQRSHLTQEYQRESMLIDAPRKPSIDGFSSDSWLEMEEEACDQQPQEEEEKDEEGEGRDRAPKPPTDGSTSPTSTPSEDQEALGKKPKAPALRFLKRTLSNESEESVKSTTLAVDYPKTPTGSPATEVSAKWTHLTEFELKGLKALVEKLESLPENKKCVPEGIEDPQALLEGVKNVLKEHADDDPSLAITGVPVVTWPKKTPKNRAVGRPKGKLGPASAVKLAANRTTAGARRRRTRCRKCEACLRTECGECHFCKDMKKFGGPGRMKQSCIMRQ
Jarid1A, sequence (P29375 1-1090): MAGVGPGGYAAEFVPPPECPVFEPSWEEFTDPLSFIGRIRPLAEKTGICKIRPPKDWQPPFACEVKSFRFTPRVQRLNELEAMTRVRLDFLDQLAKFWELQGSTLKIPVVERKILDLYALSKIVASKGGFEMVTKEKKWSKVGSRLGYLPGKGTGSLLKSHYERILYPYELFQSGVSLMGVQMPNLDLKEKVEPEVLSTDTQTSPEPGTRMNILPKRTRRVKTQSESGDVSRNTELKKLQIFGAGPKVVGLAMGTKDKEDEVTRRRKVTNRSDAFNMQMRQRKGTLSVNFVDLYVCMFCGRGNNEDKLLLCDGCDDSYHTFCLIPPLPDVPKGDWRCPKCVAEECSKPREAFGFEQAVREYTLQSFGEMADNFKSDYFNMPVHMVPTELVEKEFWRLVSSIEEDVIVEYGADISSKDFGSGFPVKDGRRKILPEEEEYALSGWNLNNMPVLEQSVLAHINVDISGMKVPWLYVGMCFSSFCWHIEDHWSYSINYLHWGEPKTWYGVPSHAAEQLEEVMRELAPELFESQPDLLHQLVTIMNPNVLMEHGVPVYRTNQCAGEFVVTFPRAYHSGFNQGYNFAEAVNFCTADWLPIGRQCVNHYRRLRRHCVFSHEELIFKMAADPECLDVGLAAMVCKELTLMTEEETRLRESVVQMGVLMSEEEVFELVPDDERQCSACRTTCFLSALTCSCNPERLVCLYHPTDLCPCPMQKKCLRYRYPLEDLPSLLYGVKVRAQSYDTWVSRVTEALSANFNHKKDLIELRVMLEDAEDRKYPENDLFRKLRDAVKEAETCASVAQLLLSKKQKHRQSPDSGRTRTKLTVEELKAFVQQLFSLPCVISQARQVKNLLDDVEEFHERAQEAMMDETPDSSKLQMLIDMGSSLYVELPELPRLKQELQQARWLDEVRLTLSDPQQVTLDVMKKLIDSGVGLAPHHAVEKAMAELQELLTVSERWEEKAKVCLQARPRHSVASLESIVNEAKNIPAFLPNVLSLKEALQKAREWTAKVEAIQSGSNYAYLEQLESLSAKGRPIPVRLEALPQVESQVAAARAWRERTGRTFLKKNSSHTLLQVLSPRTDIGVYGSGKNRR

Turning to `O=C(O)c1ccnc(-n2nc(Cc3ccc(Cl)cc3)cc2O)c1` [Example 165, 2-[3-[(4-chlorophenyl)methyl]-5-hydroxypyrazol-1-yl]pyridine-4-carboxylic acid], the IC50 was 1000 to 10000 nM in assay [1], less than 100 nM in assay [2], more than 10000 nM in assay [3] and 100 to 1000 nM in assay [4].
The matching figures for `Oc1cc(Cc2ccc(Cl)cc2)nn1-c1cc(-c2nnn[nH]2)ccn1` [Example 169, 5-[(4-chlorophenyl)methyl]-2-[4-(1H-tetrazol-5-yl)pyridin-2-yl]pyrazol-3-ol]: 1000 to 10000 nM, less than 100 nM, more than 10000 nM and 1000 to 10000 nM.
For the compound `O=C(O)c1ccnc(-n2nc(-c3cccc(Cl)c3)cc2O)c1` [Example 159, 2-[3-(3-chlorophenyl)-5-hydroxypyrazol-1-yl]pyridine-4-carboxylic acid], the IC50 was 1000 to 10000 nM in assay [1]; less than 100 nM in assay [2]; more than 10000 nM in assay [3]; 1000 to 10000 nM in assay [4]; 1000 to 10000 nM in assay [5].
`O=C(O)c1ccnc(-n2nccc2OCc2ccccc2)c1` [Example 39, 2-(5-(benzyloxy)-1H-pyrazol-1-yl)isonicotinic acid]: the IC50 in assay [1], in assay [3], in assay [4] and in assay [5] was less than 100 nM throughout.
Turning to `Cc1ccc(COc2ccnn2-c2cc(C(=O)O)ccn2)c(Cl)c1` [Example 130, 2-[5-[(2-chloro-4-methylphenyl)methoxy]pyrazol-1-yl]pyridine-4-carboxylic acid], the IC50 in assay [1] was 1000 to 10000 nM; in assay [2], 1000 to 10000 nM; in assay [3], 100 to 1000 nM; in assay [4], 100 to 1000 nM; in assay [5] it was 100 to 1000 nM.
With `O=C(O)c1ccnc(-n2ccc(CCc3ccccc3)n2)c1` [Example 35, 2-(3-phenethyl-1H-pyrazol-1-yl)isonicotinic acid], the IC50 in assay [1], in assay [3], in assay [4] and in assay [5] was 100 to 1000 nM in each case.
Take `CCCCOc1cc(Cl)ccc1COc1ccnn1-c1cc(C(=O)O)ccn1` [Example 111, 2-[5-[(2-butoxy-4-chlorophenyl)methoxy]pyrazol-1-yl]pyridine-4-carboxylic acid]: the IC50 in assay [1] was in the range of 1000 to 10000 nM; in assay [2], 1000 to 10000 nM; in assay [3] it was 1000 to 10000 nM; in assay [4], 100 to 1000 nM; in assay [5], 100 to 1000 nM.
As to `O=C(O)c1ccnc(-n2nccc2OCc2ccc(F)cc2OCc2ccc(F)cc2)c1` [Example 118, 2-[5-[[4-fluoro-2-[(4-fluorophenyl)methoxy]phenyl]methoxy]pyrazol-1-yl]pyridine-4-carboxylic acid], the IC50 was 100 to 1000 nM in assay [1]; 1000 to 10000 nM in assay [2]; 100 to 1000 nM in assay [3]; less than 100 nM in assay [4]; less than 100 nM in assay [5].
With `CC(C)COc1cc(Cl)ccc1COc1ccnn1-c1cc(C(=O)O)ccn1` [Example 112, 2-[5-[[4-chloro-2-(2-methylpropoxy)phenyl]methoxy]pyrazol-1-yl]pyridine-4-carboxylic acid], the IC50 in assay [1] was 1000 to 10000 nM; in assay [2], 1000 to 10000 nM; in assay [3], 1000 to 10000 nM; in assay [4], 100 to 1000 nM; in assay [5], 100 to 1000 nM.
Take `O=C(O)c1ccnc(-n2nc(Cc3ccccc3Cl)cc2O)c1` [Example 163, 2-[3-[(2-chlorophenyl)methyl]-5-hydroxypyrazol-1-yl]pyridine-4-carboxylic acid]: the IC50 was 1000 to 10000 nM in assay [1], less than 100 nM in assay [2], more than 10000 nM in assay [3] and 1000 to 10000 nM in assay [4].
With `CC(c1ccccc1)c1cc(O)n(-c2cc(C(=O)O)ccn2)n1` (stereo not shown) [Example 162, 2-[5-hydroxy-3-(1-phenylethyl)pyrazol-1-yl]pyridine-4-carboxylic acid], the IC50 was 1000 to 10000 nM in assay [1], less than 100 nM in assay [2], more than 10000 nM in assay [3] and 1000 to 10000 nM in assay [4].
Turning to `O=C(O)c1ccnc(-n2nc(Cc3cccc(Cl)c3)cc2O)c1` [Example 164, 2-[3-[(3-chlorophenyl)methyl]-5-hydroxypyrazol-1-yl]pyridine-4-carboxylic acid], the IC50 was 1000 to 10000 nM in assay [1], less than 100 nM in assay [2], more than 10000 nM in assay [3] and 1000 to 10000 nM in assay [4].
With `CN(CCc1cnn(-c2cc(C(=O)O)ccn2)c1)Cc1ccc(F)cc1` [Example 156, 2-[4-[2-[(4-fluorophenyl)methyl-methylamino]ethyl]pyrazol-1-yl]pyridine-4-carboxylic acid], the IC50 in assay [1] was less than 100 nM; in assay [2], more than 10000 nM; in assay [4], less than 100 nM; in assay [5], less than 100 nM.
For the compound `O=C(O)c1ccnc(-n2nccc2OCc2ccc3cn[nH]c3c2)c1` [Example 49, 2-[5-(1H-indazol-6-ylmethoxy)-1H-pyrazol-1-yl]pyridine-4-carboxylic acid], the IC50 in assay [1] lay within 1000 to 10000 nM; in assay [2], 100 to 1000 nM; in assay [4], 100 to 1000 nM; in assay [5], 100 to 1000 nM.
Take `O=C(O)c1ccnc(-n2nccc2OCc2ccc(Cl)cc2OCC2CC2)c1` [Example 106, 2-[5-[[4-chloro-2-(cyclopropylmethoxy)phenyl]methoxy]pyrazol-1-yl]pyridine-4-carboxylic acid]: the IC50 in assay [1] was 100 to 1000 nM; in assay [2], 1000 to 10000 nM; in assay [4], less than 100 nM; in assay [5], less than 100 nM.
Regarding `O=C(O)c1ccnc(-n2nccc2Cc2ccccc2)c1` [Example 32, 2-(5-benzyl-1H-pyrazol-1-yl)isonicotinic acid], the IC50 was more than 10000 nM in assay [1], 1000 to 10000 nM in assay [2], more than 10000 nM in assay [4] and more than 10000 nM in assay [5].
On to `Cc1cc(O)n(-c2cc(C(=O)O)ccn2)n1` [Example 1, 2-(5-hydroxy-3-methyl-1H-pyrazol-1-yl)isonicotinic acid], for which the IC50 in assay [1] is 100 to 1000 nM; in assay [2] it was 100 to 1000 nM; in assay [4] it was less than 100 nM; in assay [5], 100 to 1000 nM.
Take `CCc1ccc(COc2ccnn2-c2cc(C(=O)O)ccn2)cc1` [Example 56, 2-{5-[(4-ethylbenzyl)oxy]-1H-pyrazol-1-yl}pyridine-4-carboxylic acid]: the IC50 in assay [1] is 100 to 1000 nM; in assay [2], 1000 to 10000 nM; in assay [4] it was less than 100 nM; in assay [5] it was less than 100 nM.
With `Cc1ccc(-c2ccnn2-c2cc(C(=O)O)ccn2)cc1` [Example 12, 2-(5-p-tolyl-1H-pyrazol-1-yl)isonicotinic acid], the IC50 in assay [1], in assay [3], in assay [4] and in assay [5] was 100 to 1000 nM in each case.
For the compound `N#Cc1ccc(COc2ccnn2-c2cc(C(=O)O)ccn2)cc1` [Example 99, 2-[5-[(4-cyanophenyl)methoxy]pyrazol-1-yl]pyridine-4-carboxylic acid], the IC50 in assay [1] is less than 100 nM; in assay [2], 1000 to 10000 nM; in assay [4], less than 100 nM; in assay [5], less than 100 nM.
Take `Cc1ccc(COc2ccnn2-c2cc(C(=O)O)ccn2)cc1Cl` [Example 92, 2-[5-[(3-chloro-4-methylphenyl)methoxy]pyrazol-1-yl]pyridine-4-carboxylic acid]: the IC50 in assay [1] was less than 100 nM; in assay [2], 1000 to 10000 nM; in assay [4], less than 100 nM; in assay [5] it was less than 100 nM.
Consider `O=C(O)c1ccnc(-n2nc(Cc3ccccc3)cc2O)c1` [Example 8, 2-(3-benzyl-5-hydroxy-1H-pyrazol-1-yl)isonicotinic acid], for which the IC50 was 1000 to 10000 nM in assay [1], less than 100 nM in assay [2], 100 to 1000 nM in assay [4] and 100 to 1000 nM in assay [5].
`O=C(O)c1ccnc(-n2nc(-c3ccccc3Cl)cc2O)c1` [Example 7, 2-(3-(2-chlorophenyl)-5-hydroxy-1H-pyrazol-1-yl)isonicotinic acid]: the IC50 was more than 10000 nM in assay [1], less than 100 nM in assay [2], 1000 to 10000 nM in assay [4] and 1000 to 10000 nM in assay [5].
As for `O=C(O)c1ccnc(-n2nccc2-c2ccc(F)cc2F)c1` [Example 14, 2-(5-(2,4-difluorophenyl)-1H-pyrazol-1-yl)isonicotinic acid], the half-maximal inhibitory concentration (IC50) in assay [1], in assay [3], in assay [4] and in assay [5] was 100 to 1000 nM each time.
On to `O=C(O)c1ccnc(-n2nccc2-c2cccc(O)c2)c1` [Example 17, 2-(5-(3-hydroxyphenyl)-1H-pyrazol-1-yl)isonicotinic acid], for which the IC50 in assay [1], in assay [3], in assay [4] and in assay [5] was 100 to 1000 nM throughout.
Consider `O=C(O)c1ccnc(-n2nccc2OCc2ccc(Cl)c(OCC3CC3)c2)c1` [Example 140, 2-[5-[[4-chloro-3-(cyclopropylmethoxy)phenyl]methoxy]pyrazol-1-yl]pyridine-4-carboxylic acid], for which the IC50 lay in the range of 1000 to 10000 nM in assay [2], 100 to 1000 nM in assay [3], 100 to 1000 nM in assay [4] and 100 to 1000 nM in assay [5].

Broadly, the IC50 is the concentration needed to halve the response being measured.
